Consider three molecules from patent US20250387360A1, “Methods and Compositions for Treatment of Addiction” (University of Connecticut, priority 2024, published 2025).

The subject of this assay is male C57BL/6J mice. Kind of assay: 4-day DID binge-like ethanol drinking with SCFA supplementation in drinking water. Format: in vivo, mouse. The conditions noted are these: for alcohol intake with SCFA supplement: 200 mM in drinking water 10 days, n=7 mice/group. An excerpt: Male C57BL/6J mice, (RRID: IMSR_JAX: 000664), aged 6-8 weeks, were obtained from Jackson Laboratories (ME, U.S.A) for the study. The mice were housed individually under a reversed 12-hours light/dark cycle, with lights off from […] to 7:00 am. A minimum acclimation period of 2 weeks was provided for all animals before they were randomly assigned to their respective groups. Mice had free access to food (Irradiated chow, Teklad global 18% protein rodent diet, 2918, Inotiv, WI, U.S.A) and deionized water to acclimate to the testing environment. Body weight and daily food and fluid intake were monitored and noted for all animal experiments.
A standard 4-day drinking in the dark (DID) model was used to evaluate binge-like ethanol drinking patterns in mice. A 20% v/v ethanol solution was prepared by diluting 190-proof ethyl alcohol (Sigma, MO, U.S.A) with deionized water. During days 1-3, the water bottles were temporarily removed during the dark cycle of the mice, and the mice were provided with a tube containing the 20% v/v ethanol solution for a duration of two hours. On day four, the assessment of binge-like ethanol consumption took place, where the mice were given access to the 20% v/v ethanol solution for a period of four hours. The volume of fluid in the tube (read to the closest 100 μL) was measured immediately upon placement, and at two hours and four hours into the test. Following the completion of the four hours test, approximately 100 μL of blood was collected through cardiac puncture after CO2 euthanasia. Blood samples were subjected to centrifugation at 10,000 rpm for 10 minutes. The determination of blood ethanol concentrations (BEC) was performed using an Analox AMI Analyzer (Analox Instruments, MA, U.S.A). The quantity of ethanol consumed was then calculated as grams per kilogram of the mouse's body weight.
All SCFA were used in sodium salt form. Briefly, sodium acetate (Sigma, MO, U.S.A), sodium butyrate (Sigma, MO, U.S.A), sodium valerate (Ambeed, IL, U.S.A), and sodium chloride (NaCl; Sigma, Mo, U.S.A) were prepared at 200 mM concentration freshly in drinking water every two days. These concentrations were chosen based on earlier studies conducted in mice [Qi Y., et al., Sodium acetate regulates milk fat synthesis through the activation of GPR41/GPR43 signaling pathway. Frontiers in nutrition 2023, 10:1098715; Daien C I, et al., Gut-derived acetate promotes B10 cells with anti-inflammatory effects. JCI insight 2021, 6 (7)]. All SCFA and NaCl solutions were pH verified to control for acidity effects on daily consumption. SCFAs were given to mice via oral drinking for 10 consecutive days before any experiment, and this regimen was maintained throughout the entire experiment.
General statistical analysis (non-microbiome and non-RNAseq analysis) were conducted using GraphPad Prism 8 (GraphPad, CA, USA, RRID:SCR_002798). For the calculation of ethanol consumption during the DID procedure, it was expressed as grams of ethanol per kilogram of body weight (g/kg body weight), where 20% ethanol intake was determined as follows: multiplying the drinking volume by the ethanol percentage within that volume and the density of ethanol, and then dividing this by the mouse's body weight in kilograms. Normality of data distributions was tested by Shapiro-Wilk test and by Q-Q plots. Levene's test was used to test equality of variances across groups. Unpaired Student's t-tests were used to compare behavioral testing, GABA levels, and histone acetylation measurements between the sodium valerate and NaCl groups. To evaluate the impact of antibiotic cocktail administration on ethanol consumption and BEC between the groups receiving Abx and PBS at baseline and after treatment, a mixed ANOVA test was employed, given repeated measures from the same mouse from the two time points. Similarly, mixed ANOVA tests were applied to compare various SCFA levels before and after Abx administration.

Setting [1] is: supplementation in drinking water, DID.

Structures are written as SMILES.

As to `CC(=O)[O-].[Na+]` [sodium acetate, reference compound], the “alcohol intake with SCFA supplement” value is recorded as “no statistical changes”.
On the same count and under the same terms, the result for `CCCC(=O)[O-].[Na+]` [sodium butyrate, reference compound] reads “no statistical changes”.
For the molecule `CCCCC(=O)O` [valeric acid], under setting [1], the “BEC (in words)” value was “significant reduction” and the “ethanol consumption (in words)” value is on record as “significant reduction”.
